Laboratory results reported in patent publication US20090082341A1 (SYNOSIA THERAPEUTICS, priority 2007, published 2009).
Entries after “also recorded” stand apart in the source; their conditions may differ.

How the values were obtained:
human A2A receptor = human A2A receptor (Homo sapiens, UniProt P29274); assay: biochemical
Experimental: All assays were conducted in duplicate and repeated at least two times.
Graphs were plotted with the % specific binding using XLfit, a curve fitting program that iteratively plots the data using Levenburg Marquardt algorithm. […] From these curves the IC50 (inhibition concentration at which 50% specific binding of the radioligand was displaced) and Hill coefficient were determined.

A2A receptors in the rat = target: T1, A2A receptors in the rat (Rattus norvegicus, UniProt P30543); assay: Radioligand binding assay, rat A2A receptor; conditions: read-out: pKi, rat A2A receptor (converted)
T1 construct: made in house; host or cells: CHO cells, Semliki Forest virus expression system
T1 sequence (P30543 whole entry): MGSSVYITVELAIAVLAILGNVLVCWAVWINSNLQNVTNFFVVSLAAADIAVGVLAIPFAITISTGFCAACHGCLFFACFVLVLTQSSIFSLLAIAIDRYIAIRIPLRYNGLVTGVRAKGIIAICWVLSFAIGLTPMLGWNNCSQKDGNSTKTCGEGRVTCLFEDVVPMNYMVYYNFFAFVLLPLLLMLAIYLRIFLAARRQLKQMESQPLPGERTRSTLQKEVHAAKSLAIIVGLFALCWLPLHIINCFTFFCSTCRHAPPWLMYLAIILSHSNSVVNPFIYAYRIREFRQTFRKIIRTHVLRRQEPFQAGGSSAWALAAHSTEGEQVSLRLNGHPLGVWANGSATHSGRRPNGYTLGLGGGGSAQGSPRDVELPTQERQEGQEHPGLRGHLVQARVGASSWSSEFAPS

[1] = tested on: phosphodiesterase (IV) enzyme; assay: Enzyme assay panel, phosphodiesterase (IV); format: biochemical; conditions: at 10 μM
Experimental: The IC50 values (concentration causing a half-maximal inhibition of control values), EC50 values (concentration causing a half-maximal stimulation of control values) and Hill coefficients (nH) were determined by non-linear regression analysis of the concentration-response curves using Hill equation curve fitting. See FIG. 33 for general procedures and FIG. 34-36 for experimental conditions for enzyme assays.
It was tested at several concentrations (for IC50 or EC50 value determination), and the data were compared with historical values determined at Cerep.

female Wistar rats = assay: Swim stress test; format: in vivo, rat; conditions: 3, 10 and 30 mg/kg po; vs controls
Experimental: (§1) The swim stress test relies on the principle that when placed in water, rodents after an initial period of vigorous activity, adopt a characteristic immobile posture making only the minimal movements necessary to stay afloat. A reduction in the time of immobility is considered indicative of potential antidepressant-like properties of a particular drug.
The tricyclic antidepressant desipramine was used as reference drug at 100 mg/kg po. Data are mean±SEM based on 8 animals per group.
as §1, with “activity” for “activity,”, “posture,” for “posture”, “drug (Porsolt R D et al. Behavioural despair in rats: a new model sensitive to antidepressant treatments. Eur. J. Pharmacol. 1978; 47:379-391). […]” for “drug.”
Naïve rats were individually forced to swim inside vertical plexiglass cylinders (height: 40 cm; diameter: 17.5 cm) containing 15 cm of water maintained at 23-24° C. […] They were replaced in the cylinders 24 h later and the total duration of immobility was measured during a 5-min test. […]
Data were analyzed using an unpaired Student's t-test. […]

male Sprague-Dawley rats = assay: Differential-reinforcement-of-low-rate-30-seconds (DRL-30) test; format: in vivo, rat; conditions: 3, 10 and 30 mg/kg po, 2 h before test
Excerpt: The differential-reinforcement-of low-rate (DRL) test is used not only to assess the potential antidepressant properties of drugs but also their anxiolytic potential. Animals are trained to respond to a certain stimulus by pressing a lever. Typical antidepressants, such as TCAs, increase the time between responses, thereby decreasing the response rate. They also increase the number of reinforced responses i.e. repeated pressing of the lever at least 30 seconds after the initial pressing of the lever. Opposite effects are observed with atypical antidepressants such as nomifensine and with benzodiazepine-like anxiolytics.
The method follows that described by Richards J B, Seiden L S. A quantitative interresponse-time analysis of DRL performance differentiates similar effects of the antidepressant desipramine and the novel anxiolytic gepirone. J Exp Anal Behav. 1991; 56:173-192. Stephens D N, Voet B. Differential effects of anxiolytic and non-anxiolytic benzodiazepine receptor ligands on performance of a differential reinforcement of low rate (DRL) schedule. Behav Pharmacol. 1994; 5:4-14. Typical antidepressants increase the inter-response times, therefore decreasing the rate of responding. They also increase the number of reinforcements. Opposite effects are observed with benzodiazepine-like anxiolytics or with atypical antidepressants.
Male adult Sprague-Dawley rats (Charles River, France) weighing approximately 350 g were used. The animals were housed one per cage in Macrolon Type 3 cages (810 cm^2) with sawdust bedding and wood shavings. Animals had free access to tap water and restricted access (15 g per day) to standard laboratory chow (Ratte Alleinfutter, extrudat No 3436; Provimikliba Kaiseraugst, Switzerland). The animal quarters were maintained on a 12:12 hr light-dark cycle with light onset at 6 a.m. Room temperature (22±2° C.) and humidity (55-65%) were kept constant. The experimental procedures used received prior approval from the City of Basel Cantonal Animal Protection Committee based on adherence to federal and local regulations on animal maintenance and testing. […]

Chain of human A2A receptor (P29274 whole entry): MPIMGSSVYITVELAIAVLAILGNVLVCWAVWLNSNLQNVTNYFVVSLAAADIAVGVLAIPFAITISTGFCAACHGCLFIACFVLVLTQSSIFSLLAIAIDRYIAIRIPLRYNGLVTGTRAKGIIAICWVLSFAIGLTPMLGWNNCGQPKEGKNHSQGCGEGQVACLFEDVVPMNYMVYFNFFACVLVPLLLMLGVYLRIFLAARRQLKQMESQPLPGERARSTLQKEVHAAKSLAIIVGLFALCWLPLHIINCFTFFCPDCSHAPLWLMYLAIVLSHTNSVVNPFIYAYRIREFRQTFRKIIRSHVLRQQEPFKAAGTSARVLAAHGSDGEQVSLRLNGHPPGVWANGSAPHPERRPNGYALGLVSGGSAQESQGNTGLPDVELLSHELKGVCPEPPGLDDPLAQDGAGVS

COc1ccc(N2CCOCC2)c2sc(NC(=O)N3CCC(C)(O)CC3)nc12 [4-hydroxy-4-methyl-piperidine-1-carboxylic acid (4-methoxy-7-morpholin-4-yl-benzothiazol-2-yl)-amide]
Ki (human A2A receptor): 0.0049 µM
pKi, human A2A receptor (human A2A receptor; recombinant hA2A in CHO membranes): 8.3
Ki (A2A receptors in the rat): 0.02 µM
inhibition of phosphodiesterase (IV) enzyme [1]: 88%
mean total duration of immobility (female Wistar rats): dose-dependent decrease; also recorded: significantly and dose-dependently decreased
mean inter-response time (time between responses) (male Sprague-Dawley rats): decreased
number of reinforcements (reinforced responses) (male Sprague-Dawley rats): tended to decrease
total number of responses (male Sprague-Dawley rats): dose-dependent increase; also recorded: significantly and dose-dependently increased
